In patent publication US20040116527A1, “Agents against stress-induced diseases” (AJINOMOTO CO., INC., priority 2001, published 2004):

What was measured:
[1] = system: mojyako (young yellow tail); assay: Feeding test under stress from feeding at high density in a water tank (Example 7); assay type: in vivo; details: for Total feed intake: 24 feeding days; for Daily feeding ratio (%) / Daily increment (%) / Feed efficiency (%) / Survival rate (%): 28 day test; for Survival rate (%): 40 fish per 800-L tank; for feed intake compared with the remaining experimental lots (involving higher body weight increment): over the 3 week to 4 week
Protocol: Test feeds were prepared by adding lysine hydrochloride salt at the ratio shown in Table 3 below to a commercially available mashed feed for mojyako. The lysine content in the dry feed is thereby at 4.8%, which is far above the dietetic requirement (1.78%). For comparison, further, a feed was prepared by adding arginine hydrochloride salt at the same level instead of lysine hydrochloride salt, for use at the test.
As test fish, each group of 40 mojyako fishes of mean fish body weight of about 35 g were placed in one 800-L water tank, to which the feeds were fed two times daily at 8:00 in the morning and 16:00 in the afternoon to satiation, for a total of 4 weeks. During the term, their body weights were measured weekly. Herein, feeding was not done at 16:00 in the afternoon on the day before the day for body weight measurement.

Wistar rats [2] = assay: Stress-induced gastric ulcer experiment, oral aqueous solutions (Example 5); assay type: in vivo, rat; details: 5 mL orally once daily for 3 days, water immersion 5 hours on day 4; compared with control group fed pure water
Protocol: To assess the effects of lysine administration on stress-induced gastric ulcers, 7-week Wistar rats (male; Nippon Charles-River) were used. For 7 days, normal diet (CRF-1; Oriental Yeast) was fed ad libitum to the rats, for preliminary feeding. For the stress experiment, rats were divided into the following three groups for feeding for another 3 days under starvation conditions: I) a control group (N=8) fed with pure water; 2) a group (N=8) given with an aqueous lysine solution (40 mg/mL); and 3) a group (N=4) given with an aqueous mixture solution of lysine glutamate salt (40 mg/mL) and arginine (40 mg/mL). The aqueous solutions were given to the individual groups in such a manner that dosing of 5 mL of each solution was enforced with an oral probe, once daily at 9:00 in the morning.
During the term, water was fed ad libitum. On day 4, the rats were placed in a stress gage (Natsume Seisakusho; KN-468) as in Example 3, to immerse the rats in water (temperature of 22 to 25° C.) so as to soak their breast for 5 hours to induce stress-induced gastric ulcer.

[3] = system: Broiler (species: Arbor Acres); assay: Broiler feeding at normal and high density under very hot conditions (Example 8); assay type: in vivo; details: loading of lysine alone, ratio of arginine/lysine in the feed lowered
Excerpt: Broiler (species: Arbor Acres) was fed under very hot conditions.
The feeding density was 8 chickens/1 m^2 (normal density) and 12 chickens/1 m^2 (high density) in two lots; the feeds were the following three groups: Feed 1=normal feed; Feed 2=normal feed+lysine (the lysine content 2-fold that in Feed 1); or Feed 3=normal feed+lysine+arginine (the lysine content and the arginine content were individually 2-fold those in Feed 1). A total of 6 experimental examples were set as combinations of the feeding densities and the feeds. The test was started on age 21 days (the mean body weight then was 722 g). The feeding results (body weight increment, feed requirement) on age 48 days were compared thereto. On the age 48 days, the chickens were sacrificed to death, for the evaluation of their meat quality (fat ratio in abdominal cavity). The feed requirement was expressed by the feed amount required for the increment of 1 g/body weight, as calculated by dividing the total feed intake by the body weight increment.

rats = assay: Water-immersion restraint model of stress-induced gastric ulcer, diets (Example 3); assay type: in vivo, rat; details: 3-week feeding, 18 h starvation, water immersion 6 hours at 22 to 25 C
Protocol: Rats were fed with the low lysine diet and the lysine-added diet supplemented for lysine deficiency (see Table 1) for 3 weeks. After starvation for 18 hours, the rats were placed in a stress gage (Natsume Seisakusho; KN-468) to immerse the rats in water (temperature of 22 to 25° C.) so as to soak their breast for 6 hours. Thereafter, a stomach was resected, to calculate the area with gastric bleeding, to examine the degree of gastric bleeding with the NHI image software. […] A correlation between gastric bleeding and the incidence of gastric ulcer is observed in this model. Therefore, it can be concluded that adding lysine to diet can prevent stress-induced gastric ulcer occurring on the low lysine diet.

Wistar rats [4] = assay: Elevated T-maze test after water-immersion stress, oral aqueous solutions (Example 6); assay type: in vivo, rat
Protocol: Seven-week Wistar rats (male, Nippon Charles-River) were used. For 7 days, the normal diet (CRF-1; Oriental Yeast) was fed ad libitum to the rats, for preliminary feeding. For the stress experiment, the rats were divided into the following three groups for feeding for another 3 days under starvation conditions: 1) a group (N=14) fed with an aqueous glutamine solution (120 mg/mL); 2) a group (N=14) given with an aqueous lysine solution (120 mg/mL); and 3) a group (N=14) given with an aqueous mixture solution of lysine glutamate salt (120 mg/mL) and arginine (120 mg/mL). The aqueous solutions were given to the individual groups in such a manner that dosing of 5 mL of each solution was enforced with an oral probe, once daily at 9:00 in the morning. During the term, water was fed ad libitum. On day 4, the rats were placed in a stress gage (Natsume Seisakusho; KN-468) to immerse the rats in water (temperature of 22 to 25° C.) so as to soak their breast for 4 hours for stress loading. Thereafter, elevated T-maze (see Example 1) test was done, for counting the time duration for searching action.

Wistar rats [5] = assay: Model with stress-induced appetite loss, foot shock stress (Example 4); assay type: in vivo, rat; details: lysine-added diet (27 g/kg) vs control diet (13.4 g/kg), fed from 4 days before foot shock stress
Protocol: Wistar rats (male; age 13 weeks; about 400 g or so; N=16) were used at this experiment. Four days before the start of the experiment and throughout the stress experiment, the rats were fed with normal diet (control diet; lysine at 13.4 g/kg) and the lysine-added diet (27 g/kg). Under conditions of water ad libitum, feeding was done from 9:00 to 11:00. The rats were subjected to foot shock stress (1 mA/3 minutes; once per one hour at 19:00 to 7:00 on the next day) on day 4 of feeding; foot shock stress (1 mA/3 minutes, once per 2 hours at 19:00 to 7:00 on the next day) on day 5; and foot shock stress (1 mA/3 minutes, once at 7:00) on day 6. The changes in the total feed intake each day and the change of body weight over days were measured.

| Structure (SMILES) | Total feed intake [1] [g] | Daily feeding ratio (%) [1] [%] | Daily increment (%) [1] [%] | Feed efficiency (%) [1] [%] | Survival rate (%) [1] [%] | Mean body weight at start [1] | Weekly feed intake (g) for 0-1 week [1] [g] | Weekly feed intake (g) for 1-2 week [1] [g] | Weekly feed intake (g) for 2-3 week [1] [g] | Weekly feed intake (g) for 3-4 week [1] [g] | Mean body weight on 1 week [1] | Mean body weight on 2 week [1] | Mean body weight on 3 week [1] | Mean body weight on 4 week (final) [1] | feed intake compared with the remaining experimental lots (involving higher body weight increment) [1] | also measured |
| --- | --- | --- | --- | --- | --- | --- | --- | --- | --- | --- | --- | --- | --- | --- | --- | --- |
| N=C(N)NCCC[C@H](N)C(=O)O [Arginine, L-Arginine, reference compound] | 3072 | 4.09 | 3.36 | 82.0 | 100 | 35.5 | 18.7 | 36.7 | 54.5 | 76.8 | 45.7 | 61.5 | 77.6 | 98.5 | could not be obtained | – |
| NCCCC[C@H](N)C(=O)O [Lysine, L-Lysine] | 3452 | 4.29 | 3.68 | 85.8 | 100 | 34.8 | 18.4 | 38.3 | 59.9 | 86.3 | 46.4 | 63.7 | 84.2 | 108.9 | larger | areas of gastric bleeding (Wistar rats [2]): significant reduction; body weight increment compared with the control ([1]; at the termination of the test): 17%; growth inhibition [3]: no growth inhibition is observed; degree in areas of gastric bleeding (ratio of the area of gastric bleeding to the total gastric area) (rats): can prevent; time duration for searching action (Wistar rats [4]; 5 mL orally once daily for 3 days, water immersion 4 hours on day 4, compared with the glutamine group): significantly prolonged; effect on total feed intake and body weight change under stress (Wistar rats [5]): preventive effect |
| NC(=O)CC[C@H](N)C(=O)O [glutamine, L-Glutamine, reference compound] | – | – | – | – | – | – | – | – | – | – | – | – | – | – | – | time duration for searching action, glutamine group vs physiological saline group (Wistar rats [4]; evaluation of the effect of glutamine): No significant difference |
